Patent publication US9056136B2, “Weakly basic 2-nitroimidazoles for the non-invasive detection of tissue hypoxia” (Natural Pharmacia International, Inc., priority 2006, dated 2015)
Read-outs that look alike come from different tables or passages of the source.

Tests used:
[1] = humans; cited from earlier work
[2] = tested on: Chinese hamster V79-4 lung fibroblasts; assay: pH-dependent binding to anoxic V79-4 cells, ELISA of cell lysates; format: cell-based; conditions: for binding (ng/g protein ± SE): anoxic V79 cells, 200 uM, 3 hours, 5% CO2+95% nitrogen
Text: Weakly basic 2-nitroimidazole hypoxia compounds of the invention are more sensitive detectors of hypoxia in cells at high pH than are 2-nitroimidazoles that lack a weakly basic moiety, such as CCI-103F. pH-dependent binding for weakly basic pimonidazole was compared to that for CCI-103F in Chinese hamster V79-4 lung fibroblasts under conditions of short-term anoxia. The pH range used (6.4 to 7.4) encompasses about 90% of extracellular pHs measured in human tumors. Eagle's minimum essential medium (MEM) containing 4.5 g/L glucose, but no carbonate, was warmed to 37° C. in a warm room and adjusted to pH 6.4, 6.8 and 7.4 by the addition of sodium bicarbonate under a stream of 5% CO2+95% nitrogen. Fetal bovine serum (FBS) was added to produce an Eagle's pH adjusted MEM containing 10% FBS. Attached V79-4 cells were harvested with EDTA-trypsin and diluted in 25 mL of the pH adjusted MEM at a concentration of 3×10^5 cells/mL. To this solution was added an amount of a stock solution of pimonidazole HCl or CCI-103F to produce a final concentration of 200 uM. The cell solution was then incubated under an atmosphere of 5% CO2+95% nitrogen with agitation for 3 hours. Cell lysates were analyzed by ELISA and the data normalized to protein content. The experiments for both markers were performed in triplicate.

[3] = tested on: spontaneous canine tumors; assay: immunostaining of hypoxia marker adducts in biopsies of spontaneous canine tumors; format: in vivo, dogs
Text: Weakly basic 2-nitroimidazole hypoxia compounds of the invention are more efficient at detecting fluctuating hypoxia than are compounds that lack a weakly basic moiety when measured in large spontaneous canine tumors analogous to those occurring in humans. The hydrochloride salt of the weakly basic hypoxia marker, pimonidazole, was given to 12 dogs at a dosage of 0.5 gm/m^2 body surface area. Seven hours later, all 12 dogs received CCI-103F, a marker that lacks a weakly basic moiety. Two to four, widely separated biopsy samples were taken from viable regions in each tumor and immediately placed in cold 10% neutral buffered formalin. The specimens were fixed for 18-24 hours at 4° C. and then transferred into cold 70% ethanol and stored at 4° C. until mounted into paraffin blocks. Sections from formalin-fixed paraffin-embedded biopsy samples were immunostained for pimonidazole and CCI-103F binding using primary rabbit polyclonal antisera to pimonidazole and CCI-103F adducts respectively. Immunostained sections were exhaustively scanned at 400× by means of an Axioskop 50 microscope and Fluar objective and the percent immunostaining for pimonidazole and CCI-103F adducts was measured.

[4] = cited from earlier work
[5] = tested on: central nervous system; conditions: clinical use, 0.5 g/m2; 750-1000 mg/patient; 50% of the maximally tolerated single dose; cited from earlier work
[6] = tested on: V79 cells; conditions: cited from earlier work

| SMILES | plasma half-life (t1/2) [1] | binding (ng/g protein ± SE) ([2]; pH 6.4) | intensity of binding compared with CCI-103F ([2]; pH 6.4 to 7.4, anoxic V79-4 cells) | binding (ng/g protein ± SE) ([2]; pH 6.8) | binding (ng/g protein ± SE) ([2]; pH 7.4) | extent of immunostaining relative to CCI-103F, factor on average ([3]; 12 dogs, pimonidazole HCl 0.5 gm/m^2, CCI-103F seven hours later, paired t test) | extent of binding relative to CCI-103F within a single tumor ([3]; regions of one canine tumor, FIGS. 1A-1D) | pKa [4] | central nervous system (CNS) effects [5] | Ci/Ce in V79 cells ([6]; pH 6.4) | Ci/Ce in V79 cells ([6]; pH 6.8) | Ci/Ce in V79 cells ([6]; pH 7.4) |
| --- | --- | --- | --- | --- | --- | --- | --- | --- | --- | --- | --- | --- |
| COCC(O)Cn1ccnc1[N+](=O)[O-] (centres unmarked) [misonidazole] | 9.3 h |  |  |  |  |  |  |  |  |  |  |  |
| O=[N+]([O-])c1nccn1CC(O)CN1CCCCC1 (centres unmarked) [pimonidazole, 1-(2-hydroxy-3-piperidinopropyl)-2-nitroimidazole] | 5.1 ± 0.8 h | 144 ± 15 ng/g protein | greater than that for CCI-103F at all pH levels tested | 293 ± 19 ng/g protein | 363 ± 22 ng/g protein | 1.25 | greatly exceeded it in other regions | 8.7 | extremely low frequency of even the mildest of central nervous system (CNS) effects | 1.0 | 1.6 | 3.3 |
| O=[N+]([O-])c1nccn1CC(O)COC(C(F)(F)F)C(F)(F)F (centres unmarked) [CCI-103F] |  | 90 ± 7 ng/g protein |  | 118 ± 17 ng/g protein | 125 ± 5 ng/g protein |  |  |  |  | ~1.0 | ~1.0 | ~1.0 |
| O=C(Cn1ccnc1[N+](=O)[O-])NCC(F)(F)C(F)(F)F [EF5, 2-(2-nitro-1H-imidazol-1-yl)-N-(2,2,3,3-pentafluoropropyl)-acetamide] | 11.7 ± 2.7 h |  |  |  |  |  |  |  |  |  |  |  |
